Source: paper PMC10923054, “Antiplasmodial peptaibols act through membrane directed mechanisms” (Cell Chemical Biology, 2024)
Square brackets hold non-standard residues; d marks the D form. Peptide text beside a SMILES is read from it. Phe(ol) = N[C@H](CO)Cc1ccccc1; Leu(ol) = CC(C)C[C@H](N)CO; dIva = CC[C@@](C)(N)C(=O)O; Aib = CC(C)(N)C(=O)O

Assays:
[1] = tested on: PfMDR1 cKD parasite line; test: MDR1 compound susceptibility assay (Renilla luciferase); on pfMDR1 cKD Sensitivity: key: -: A '–' indicates a negative finding; a single '+' indicates a positive finding; a double '++' indicates a strong positive finding; assay type: cell-based, P. falciparum; details: for shift in sensitivity upon PfMDR1 knockdown: with (0.5 μM) vs without aTc, 72 h, luminescence; for pfMDR1 cKD Sensitivity: Figure 7A summary / graphical abstract
Text: A conditional knockdown parasite line was generated for the P. falciparum multi-drug resistance 1 (MDR1; PF3D7_0523000) following previously described procedures.[84]^,[85] The native PfMDR1 locus was engineered using CRISPR/SpCas9 to afford transcriptional fusion of 10 tandem TetR-DOZI binding aptamers in the 3′UTR for anhydrotetracycline (aTc)-dependent regulation of PfMDR1 expression.
As a control cell line, a parasite line expressing an aptamer-regulatable fluorescent protein integrated in the cg6 locus[84] was assayed in parallel. Synchronous ring-stage parasites in the presence (0.5 μM) and absence of aTc were dispensed into 384-well polystyrene microplates (Corning®), and compounds added using the Janus® platform (PerkinElmer). DMSO- and DHA (0.5 μM) served as normalization controls for maximal and minimum signal. Luminescence was measured after 72 h and IC50 values were obtained from normalized dose-response curves using GraphPad Prism Version 8.

[2] = tested on: HepG2 cells; test: HepG2 cytotoxicity assay (MTS); assay type: cell-based, H. sapiens; details: for EC50: 48 h, MTS, absorbance 490 nm, highest concentration 25 μM, mean ± SEM, biological triplicate; for cytotoxicity in HepG2: highest concentration tested 25 μM
Experimental: HepG2 cells are grown at 37°C in DMEM with 10% FBS, 1% Antibiotic/Antimycotic, 0.3% NaHCO3, 5 mM HEPES pH 7.4, and 2 mM L-glutamine as needed in an atmosphere containing 5% CO2.
The cytotoxicity assay was performed as reported previously.[35] HepG2 cells were seeded at ∼2,250 cells per well 24 h prior to compound addition. Cells were then incubated for an additional 48 h prior to the addition of MTS and absorbance reading at 490 nm on Synergy Neo2 multimode reader (BioTek, Winsooki, VT). Cytotoxicity EC50 values were determined using CDD Vault (https://www.collaborativedrug.com/).

[3] = tested on: P. falciparum 3D7; test: Phenotypic screen: asexual blood stage EC50 determination (SYBR Green I); assay type: cell-based; details: CQ sensitive line, asynchronous culture, 72 h, mean ± SEM, biological triplicate
Experimental: Asexual blood stage parasites grown in the Chakrabarti laboratory were cultured based on a protocol by Trager and Jensen[57] with some modifications.[35] Culture was maintained at 4% hematocrit with human A+ whole blood obtained from the Florida OneBlood, in RPMI 1640 supplemented with 25 mM HEPES pH 7.4, 26 mM NaHCO3, 2% dextrose, 15 mg/L hypoxanthine, 25 mg/L gentamycin, and 0.5% Albumax II. Incubator conditions remained at 37°C and 5% CO2, 5% O2, 90% N2, or 95% air. For comparison screening using serum vs Albumax II, culture media was changed from RPMI with 0.5% Albumax II to RPMI with 10% human serum and maintained for a minimum of 2 weeks prior to assay use.
Inhibitor EC50 determination in 3D7 and Dd2 was performed as discussed in,[35] based on established protocols.[60] Assays utilized asynchronous culture at 1% parasitemia, 1% hematocrit. Culture was incubated with compound dilutions for 72 h followed by freezing at −80°C to promote lysis, then thawing and incubation for 45 min–1 h with 1× SYBR Green I in a lysis buffer (20 mM Tris-HCL, 0.08% saponin, 5 mM EDTA, and 0.8% Triton X-100). Fluorescence was read 485 nm excitation, 530 nm emission on a Synergy Neo2 multimode reader (BioTek Winsooki, VT) and EC50 curves were generated using CDD Vault (https://www.collaborativedrug.com/).

[4] = Electrophysiology: reconstitution into planar lipid bilayers; details: for channel activity in planar lipid bilayers: 1 μM peptaibol, DPhPc bilayers, pH 7.0 saline; for Channel Induction: Figure 7A summary; on Channel Induction: key: -: A '–' indicates a negative finding; a single '+' indicates a positive finding; a double '++' indicates a strong positive finding
Experimental: Ion channel formation by peptaibols was evaluated with reconstitution into planar lipid bilayers using the Orbit Mini workstation (Nanion). Bilayers were formed from a 5 mg/ml decane solution of 1,2-diphytanoyl-sn-glycero-3-phosphocholine (DPhPc, Avanti Polar Lipids) across 100 μm diameter orifices in the MECA 4 recording chip with 4 microcavities. The bilayers were bathed with saline (in mM: 70 NaCl, 70 KCl, 2.5 MgCl2, 2 CaCl2, 10 HEPES, 10 MES, 10 glucose, pH 7.0) at both faces, with resistances of up to 500 GΩ before channel incorporation. Peptaibols were added from a 10 mM DMSO stock to the cis chamber at a final 1 μM concentration; spontaneous incorporation into the bilayer typically occurred within 10–15 min. Recordings were acquired at 20 kHz and filtered at 1.25 kHz.

[5] = tested on: synchronized Dd2 parasites; test: Synchronous stage specificity assay (SSA); assay type: cell-based, P. falciparum; details: for stage of parasite arrest when added at 6 HPI: 5 x EC50 (TC HA-II 3 x EC50), Giemsa and YOYO-1 flow cytometry; for Stage of Inhibition: Figure 7A summary
Experimental: SSA was performed in triplicate as previously described.[64] In summary, Dd2 culture was synchronized by combination of MACS column[65] and sorbitol treatment,[66] and cultured at 1% parasitemia, 2% hematocrit, for 54 h. Compound was added at approximately 6, 18, 30, or 42 HPI, and samples were taken every 12 h after treatment times for Giemsa staining and flow cytometric analysis. HZ NPDG-H and HZ NPDG-I were tested at 5 x EC50, TC HA-II tested at 3 x EC50 due to its higher hemolytic potential. All test values above EC90. Flow samples were fixed in 4% paraformaldehyde, incubated for 30 min at 37°C, then washed 3 times in PBS. Fixed samples were stored at 4°C prior to staining, then resuspended in 0.25% Trition X-100 and incubated for 10 min with shaking. Permeabilized samples were centrifuged and resuspended in a 50 μg/mL RNase solution, and incubated for 3 h at 37°C. After centrifugation, samples were resuspended in a YOYO-1 solution (500 nM final concentration) and read on a CytoFLEX S (Beckman Coulter, Brea, CA) at 488 nm excitation, with 100,000–500,000 events recorded per sample. Infected RBCs were gated using an uninfected RBC control in FlowJo version 10. After gating populations, FITC channel values were extracted from FlowJo and the sum total fluorescence of the iRBCs and the median fluorescence for each timepoint were graphed in Graph Pad Prism Version 9. Assay workflow outline was created using BioRender.

[6] = tested on: P. berghei liver stage parasites in HepG2 cells; test: High content imaging P. berghei liver stage assay (luciferase 48 HPI, MSP1/AMA1 72 HPI, HepG2 area); assay type: cell-based; details: for Liver stage inhibition: Figure 7A summary
Experimental: HepG2 cells infected with luciferase-expressing P. berghei sporozoites were seeded onto compound-loaded 384-well plates 2 hours after sporozoite addition. A live luciferase readout at 48 HPI[62] quantifies compound activity against parasite biomass, while HCI of MSP1 and AMA1 expression at 72 HPI quantifies effects on liver stage maturation and hepatic merozoite formation. Compound effects on hepatocytes are assessed based on HepG2 area occupied in the 72 HPI HCI assay. All data are normalized to in-plate DMSO controls.

CC(=O)NC(C)(C)C(=O)N1CCC[C@H]1C(=O)NC(C)(C)C(=O)N[C@@H](C)C(=O)NC(C)(C)C(=O)N[C@@H](C)C(=O)N[C@@H](CCC(N)=O)C(=O)NC(C)(C)C(=O)N[C@H](C(=O)NC(C)(C)C(=O)NCC(=O)N[C@@H](CC(C)C)C(=O)NC(C)(C)C(=O)N1CCC[C@H]1C(=O)N[C@H](C(=O)NC(C)(C)C(=O)NC(C)(C)C(=O)N[C@@H](CCC(=O)O)C(=O)N[C@@H](CCC(N)=O)C(=O)N[C@H](CO)Cc1ccccc1)C(C)C)C(C)C [Alamethicin, reference compound] (Ac-[Aib]P[Aib]A[Aib]AQ[Aib]V[Aib]GL[Aib]PV[Aib][Aib]EQ[Phe(ol)]; N-terminus assumed)
shift in sensitivity upon PfMDR1 knockdown [1]: no differential sensitivity
EC50 [2]: 6600 ± 100 nM
cytotoxicity in HepG2 [2]: Minor cytotoxicity
EC50 [3]: 540 ± 30 nM

CC[C@H](C)[C@H](NC(=O)[C@H](CC(C)C)NC(=O)[C@H](CCC(N)=O)NC(=O)[C@@](C)(CC)NC(C)=O)C(=O)NC(C)(C)C(=O)N1CCC[C@H]1C(=O)N[C@](C)(CC)C(=O)N[C@@H](CC(C)C)C(=O)NC(C)(C)C(=O)N1CCC[C@H]1C(=O)N[C@H](CO)CC(C)C [HZ NPDG-I, harzianin NPDG I] (Ac-[dIva]QLI[Aib]P[dIva]L[Aib]P[Leu(ol)])
pfMDR1 cKD Sensitivity [1]: ++
shift in sensitivity upon PfMDR1 knockdown [1]: 43 fold
channel activity in planar lipid bilayers [4]: reproducibly induced unambiguous channel-like activity
Channel Induction [4]: +
stage of parasite arrest when added at 6 HPI [5]: arrest parasite development in early ring
Stage of Inhibition [5]: Ring
EC50 [2]: > 25000 nM
cytotoxicity in HepG2 [2]: no cytotoxicity
EC50 [3]: 120 ± 10 nM
Liver stage inhibition [6]: Maturation only

CC[C@H](C)[C@H](NC(=O)[C@H](C)NC(=O)[C@@H]1CCCN1C(=O)C(C)(C)NC(=O)[C@H](CC(C)C)NC(=O)[C@H](CCC(N)=O)NC(=O)[C@@](C)(CC)NC(C)=O)C(=O)NC(C)(C)C(=O)N1CCC[C@H]1C(=O)N[C@](C)(CC)C(=O)N[C@@H](CC(C)C)C(=O)NC(C)(C)C(=O)N1CCC[C@H]1C(=O)N[C@H](CO)CC(C)C [HZ NPDG-H, harzianin NPDG H] (Ac-[dIva]QL[Aib]PAI[Aib]P[dIva]L[Aib]P[Leu(ol)])
pfMDR1 cKD Sensitivity [1]: +
shift in sensitivity upon PfMDR1 knockdown [1]: ~6 fold
channel activity in planar lipid bilayers [4]: did not induce detectable channel activity
Channel Induction [4]: -
stage of parasite arrest when added at 6 HPI [5]: late trophozoite to early schizont stage
Stage of Inhibition [5]: Schizont
EC50 [2]: > 25000 nM
cytotoxicity in HepG2 [2]: no cytotoxicity
EC50 [3]: 120 ± 10 nM
Liver stage inhibition [6]: Maturation only

CC[C@@](C)(NC(=O)C(C)(C)NC(=O)[C@H](CC(C)C)NC(=O)[C@@H]1CCCN1C(=O)C(C)(C)NC(=O)[C@H](CC(C)C)NC(=O)CNC(=O)C(C)(C)NC(=O)[C@@H](NC(=O)C(C)(C)NC(=O)[C@H](CCC(N)=O)NC(=O)C(C)(C)NC(=O)C(C)(C)NC(=O)[C@H](C)NC(=O)CNC(=O)C(C)(C)NC(C)=O)C(C)C)C(=O)N[C@@H](CCC(N)=O)C(=O)N[C@H](CO)CC(C)C [TC HA-II, trichorzin HA II] (Ac-[Aib]GA[Aib][Aib]Q[Aib]V[Aib]GL[Aib]PL[Aib][dIva]Q[Leu(ol)])
shift in sensitivity upon PfMDR1 knockdown [1]: no differential sensitivity
channel activity in planar lipid bilayers [4]: did not reveal channel activity
Channel Induction [4]: -
stage of parasite arrest when added at 6 HPI [5]: early arrest with a condensed permatroph morphology
Stage of Inhibition [5]: Ring
EC50 [2]: 13000 ± 2000 nM
cytotoxicity in HepG2 [2]: Minor cytotoxicity
EC50 [3]: 390 ± 90 nM
Liver stage inhibition [6]: Maturation and replication
luciferase inhibition at 48 HPI (liver stage HCI) ([6]; tested at 5 and 0.5 μM): showed luciferase inhibition
